TGI data for twelve compounds are collected here from PubChem BioAssay (NCI).

Among the test systems are A549 NSCLC; MDA-MB-435; NCI-H226 lung; OVCAR-4 ovarian; MDA-N; IGROV1 ovarian; OVCAR-3 ovarian; SR leukemia; MCF7 breast; SK-MEL-5 melanoma.
What all share (assay): inhibition of tumour cell growth, NCI panel, 48 h

Each structure is given as a SMILES string.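 Each compound was tested at five concentrations against cells in 96-well plates for 48 hours. TGI: concentration producing complete growth inhibition.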

Turning to `O=C(CC(O)(C(F)(F)F)C(F)(F)F)C(CCCl)C(O)(C(F)(F)F)C(F)(F)F` (stereo not given), the TGI with A549 NSCLC, with MDA-MB-435, in the test on NCI-H226 lung, in the test with OVCAR-4 ovarian, in the test with MDA-N and in the test on IGROV1 ovarian was over 100 µM each time. Also, the TGI with OVCAR-3 ovarian is 65.3 µM; in the test on SR leukemia, over 100 µM; in the test with MCF7 breast, over 100 µM; with SK-MEL-5 melanoma, 71 µM.
On to `O=C1NC(=S)N/C1=C/c1ccccc1O`, for which the TGI with A549 NSCLC, in the test with MDA-MB-435, with NCI-H226 lung, in the test with OVCAR-4 ovarian, in the test on MDA-N and in the test on IGROV1 ovarian was over 100 µM throughout. For the same compound, the TGI in the test on OVCAR-3 ovarian, in the test on SR leukemia, in the test with MCF7 breast and with SK-MEL-5 melanoma was over 100 µM throughout.
On to `CN(CCc1ccc(Cl)c(Cl)c1)[C@H]1CCCC[C@H]1N1CCCC1`, for which the TGI in the test with A549 NSCLC, in the test on MDA-MB-435, in the test with NCI-H226 lung, in the test on OVCAR-4 ovarian, in the test with MDA-N and with IGROV1 ovarian was over 100 µM each time. Also, the TGI with OVCAR-3 ovarian, in the test with SR leukemia, in the test on MCF7 breast and with SK-MEL-5 melanoma was over 100 µM in each case.
For `CC(=O)N(CN1C(=O)CCC1C(=O)O)c1ccccc1` (stereo not given), the TGI with A549 NSCLC, in the test with MDA-MB-435, with NCI-H226 lung, with OVCAR-4 ovarian, with MDA-N and with IGROV1 ovarian was over 100 µM each time. Besides, the TGI in the test with OVCAR-3 ovarian, with SR leukemia, in the test with MCF7 breast and in the test on SK-MEL-5 melanoma was over 100 µM in each case.
Take `Clc1nc(-[n+]2ccc(-c3ccncc3)cc2)nc(Nc2ccccc2)c1Cl`: the TGI with A549 NSCLC, with MDA-MB-435, with NCI-H226 lung, in the test with OVCAR-4 ovarian, in the test on MDA-N and with IGROV1 ovarian was over 100 µM each time. Also, the TGI is over 100 µM with OVCAR-3 ovarian, 77.4 µM in the test on SR leukemia, over 100 µM with MCF7 breast and over 100 µM with SK-MEL-5 melanoma.
As to `CC(=O)O[C@H]1C#C/C=C\C#CC[C@@H]2C(=O)N(C(=O)OC(C)(C)C)[C@@H]12`, the TGI in the test with A549 NSCLC is over 100 µM; in the test on MDA-MB-435, over 100 µM; with NCI-H226 lung, 84.8 µM; in the test with OVCAR-4 ovarian it was over 100 µM; in the test on MDA-N, over 100 µM; in the test on IGROV1 ovarian, over 100 µM. Also, the TGI with OVCAR-3 ovarian was 98.3 µM; in the test on SR leukemia, over 100 µM; in the test with MCF7 breast, over 100 µM; with SK-MEL-5 melanoma, over 100 µM.
Consider `OC1CCCC1C(O)(C(F)(F)F)C(F)(F)F` (stereo not given), for which the TGI with A549 NSCLC, with MDA-MB-435, with NCI-H226 lung, in the test with OVCAR-4 ovarian, with MDA-N and in the test on IGROV1 ovarian was over 100 µM throughout. Also, the TGI with OVCAR-3 ovarian, with SR leukemia, in the test on MCF7 breast and with SK-MEL-5 melanoma was over 100 µM each time.
With `COC(=O)[C@H](C)N1C(=O)N[C@@H](C(C)C)C1=O`, the TGI with A549 NSCLC, in the test on MDA-MB-435, in the test with NCI-H226 lung, in the test with OVCAR-4 ovarian, in the test on MDA-N and in the test with IGROV1 ovarian was over 100 µM throughout. The TGI in the test with OVCAR-3 ovarian, in the test with SR leukemia, with MCF7 breast and in the test on SK-MEL-5 melanoma was over 100 µM each time.
As for `COC(=O)C1=C(O)C(C(=O)OC)[C@@]2(O)[C@@H](C(=O)OC)C(c3ccc(OC(=O)/C(=C/c4ccc(Cl)cc4)c4ccc(Cl)cc4)cc3)C[C@@H]1[C@@H]2C(=O)OC` (stereo not given in full), the TGI was over 100 µM with A549 NSCLC; over 100 µM in the test with MDA-MB-435; 63.9 µM with NCI-H226 lung; over 100 µM in the test with OVCAR-4 ovarian; 51.9 µM with MDA-N; over 100 µM with IGROV1 ovarian. In addition, the TGI with OVCAR-3 ovarian, in the test on SR leukemia, in the test on MCF7 breast and in the test with SK-MEL-5 melanoma was over 100 µM in each case.
On to `CN(C)C[C@H]1CC[C@@H](CN(C)C)C1=O`, for which the TGI in the test with A549 NSCLC is over 50 µM; with MDA-MB-435 it was 19.6 µM; in the test with NCI-H226 lung it was 32.3 µM; with OVCAR-4 ovarian, 16.3 µM; with MDA-N, 16.1 µM; with IGROV1 ovarian it was 31.6 µM. In addition, the TGI was 16.6 µM in the test on OVCAR-3 ovarian, over 50 µM in the test with SR leukemia, 6.19 µM in the test with MCF7 breast and 23.6 µM in the test with SK-MEL-5 melanoma.
Regarding `CC1(C)O[C@@H](CO)[C@H]([C@@]23OC[C@H]4OC(C)(C)OC4[C@@H]2OC(C)(C)O3)O1` (stereo not given in full), the TGI in the test on A549 NSCLC, in the test on MDA-MB-435, in the test with NCI-H226 lung, in the test on OVCAR-4 ovarian, in the test on MDA-N and with IGROV1 ovarian was over 100 µM in each case. Further, the TGI with OVCAR-3 ovarian, in the test with SR leukemia, with MCF7 breast and with SK-MEL-5 melanoma was over 100 µM each time.
`O=C1/C(=C/c2ccccc2)CCc2ccc(Cl)nc21`: the TGI with A549 NSCLC was 38.4 µM; in the test on MDA-MB-435, 30.4 µM; in the test on NCI-H226 lung it was 61.9 µM; in the test with OVCAR-4 ovarian, over 83.5 µM; in the test on MDA-N, 18.5 µM; with IGROV1 ovarian, 17.7 µM. Further, the TGI with OVCAR-3 ovarian was found to be 46.9 µM; with SR leukemia, 9.01 µM; in the test with MCF7 breast it was 13.2 µM; in the test on SK-MEL-5 melanoma it was 20.1 µM.
